Measured values published in article PMC4349960, “[^18F]FE@SUPPY: a suitable PET tracer for the adenosine A3 receptor? An in vivo study in rodents” (European Journal of Nuclear Medicine and Molecular Imaging, 2015).
Several values for one entry are separate records, joined by “and”; a condition that tells them apart may be missing. Equal values may be shown once. Entries after “also recorded” stand apart in the source; their conditions may differ.

Columns and labels:
[1] = In vitro plasma stability, human plasma; assay type: in vitro ADME; details: 0-120 min
Protocol: (§1) Experiments were conducted following a standard protocol. Briefly, [^18F]FE@SUPPY was added to lithium-heparinized human or rat plasma and after predetermined times (0, 60 and 120 min), the incubation mixture was eluted through a preconditioned SPE cartridge. The washed and newly eluted eluate solutions were injected into the radio-HPLC system (HPLC system as described in the section Ex vivo stability). The stationary phase was an analytical HPLC column LiChrospher LICHROCART® RP-18e (5 μm), 125 × 4 mm precolumn, and the mobile phase consisted of sodium citrate tribasic dehydrate (buffered at 0.034 M, pH 2.5)/acetonitrile 32:68 at a flow rate of 2 mL/min. Samples were incubated with a Thermomixer Compact from Eppendorf (Vienna, Austria) and centrifuged with a Universal 30 RF centrifuge from Hettich (Tuttlingen, Germany).

[2] = In vitro plasma stability, rat plasma; assay type: in vitro ADME
Protocol: as §1

[3] = Ex vivo stability/metabolism in rat plasma and brain after pretreatment; parameters: species or system rats; details: for Brain to blood uptake ratio / %ID/g at 60 min, Blood (plasma) / %ID/g at 60 min, Brain / Unchanged [^18F]FE@SUPPY at 60 min, Blood (plasma) / Unchanged [^18F]FE@SUPPY at 60 min, Brain: rats
Protocol: To determine the influence of the four treatments (vehicle, MRS1523, FE@SUPPY, TQD) on uptake of [^18F]FE@SUPPY, stability was assessed in plasma and brain 60 min after tracer injection. Final blood samples (3 mL) were collected in heparin-buffered tubes, rat brains were washed with ice-cold water and homogenized in 0.9 % aqueous NaCl solution (1 mL) using an IKA T10 basic Ultra-turrax (IKA Laboratory Equipment, Staufen, Germany). […] Sample clean-up was performed by vortexing plasma with the equivalent amount of methanol/acetonitrile (9:1) for 1 min and by subsequent ultracentrifugation (10,000 rpm, 5 min) to remove precipitated proteins. The supernatants obtained were analysed by radio-HPLC (Agilent, Boeblingen, Germany) equipped with a series 1100 autosampler, a series 1200 quaternary pump, a series 1200 diode array detector and a lead-shielded BGO radiodetector. A Chromolith® Performance RP-18e (100 × 4.6 mm, 5 μm) column with a Chromolith® Performance RP-18e (4 x4 mm, 5 μm) precolumn was eluted at a flow rate of 2 mL/min using a mobile phase consisting of 60 % acetonitrile and 40 % water/acetic acid 97.5:2.5 and 32 mM ammonium acetate, pH 3.5. UV detection was performed at a wavelength of 254 nm. The retention time of [^18F]FE@SUPPY was 4.6 – 5.9 min (UV detection and radiodetection).

[4] = parameters: method as in PMID 20447552; details: rats, 30 min after injection; cited from earlier work
[5] = pretreatment unlabelled FE@SUPPY

CCSC(=O)c1c(CC)nc(-c2ccccc2)c(C(=O)OCC[18F])c1CC [[^18F]FE@SUPPY, 5-(2-[^18F]fluoroethyl)-2,4-diethyl-3-(ethylsulfanylcarbonyl)-6-phenylpyridine-5-carboxylate]
stability in human plasma [1]: no degradation; also recorded: no metabolites were observed; also recorded: Stable over 120 min in human plasma
radioactivity from metabolites in rat plasma ([2]; 60 min): 18.7 ± 3%
radioactivity from metabolites in rat plasma ([2]; 120 min): 35.0 ± 4%
radioactive metabolites in rat plasma over the observation period ([2]; observation period of 120 min): 19 – 35%
Ex vivo metabolites in rats (where found) ([3]; 60 min after tracer injection): Blood and brain
Brain to blood uptake ratio ([3]; baseline): 5.2
%ID/g at 60 min, Blood (plasma) ([3]; pretreatment DMSO): 0.022 ± 0.003 %ID/g and 0.0216 ± 0.003 %ID/g
%ID/g at 60 min, Brain ([3]; pretreatment DMSO): 0.1132 ± 0.0002 %ID/g
Unchanged [^18F]FE@SUPPY at 60 min, Blood (plasma) ([3]; pretreatment DMSO): 25.8 ± 5.3% and 25.81 ± 5.3%
Unchanged [^18F]FE@SUPPY at 60 min, Brain ([3]; pretreatment DMSO): 43.7 ± 9.5%
Brain to blood uptake ratio ([3]; pretreatment FE@SUPPY): 7.9
%ID/g at 60 min, Blood (plasma) ([3]; pretreatment MRS1523): 0.0145 ± 0.002 %ID/g
%ID/g at 60 min, Brain ([3]; pretreatment MRS1523): 0.0918 ± 0.0001 %ID/g
Unchanged [^18F]FE@SUPPY at 60 min, Blood (plasma) ([3]; pretreatment MRS1523): 26.5 ± 1.4% and 26.54 ± 1.4%
Unchanged [^18F]FE@SUPPY at 60 min, Brain ([3]; pretreatment MRS1523): 37.8 ± 4.3% and 37.75 ± 4.3%
%ID/g at 60 min, Blood (plasma) ([3]; pretreatment TQD): 0.0214 ± 0.004 %ID/g
%ID/g at 60 min, Brain ([3]; pretreatment TQD): 0.1507 ± 0.0005 %ID/g
Unchanged [^18F]FE@SUPPY at 60 min, Blood (plasma) ([3]; pretreatment TQD): 39.9 ± 4.7% and 39.87 ± 4.7%
Unchanged [^18F]FE@SUPPY at 60 min, Brain ([3]; pretreatment TQD): 55.2 ± 7.0% and 55.21 ± 7.0%
%ID/g at 60 min, Blood (plasma) [3, 5]: 0.0160 ± 0.002 %ID/g
%ID/g at 60 min, Brain [3, 5]: 0.1273 ± 0.0000 %ID/g
Unchanged [^18F]FE@SUPPY at 60 min, Blood (plasma) [3, 5]: 32.4 ± 5.6%
Unchanged [^18F]FE@SUPPY at 60 min, Brain [3, 5]: 49.6 ± 9.4% and 49.64 ± 9.4%
metabolites in brain [4]: no metabolites
parent compound left in plasma [4]: 30%
